Converted amounts (≈) assume the structure as drawn.
Tests used:
[1] = Kinetic solubility of the compound in 0.01 M HCl at pH 2 by nephelometry; format: physicochemical; settings: read-out: Kinetic_solubility
[2] = Kinetic solubility of the compound in phosphate buffer at pH 6.5 by nephelometry; format: physicochemical; settings: read-out: Kinetic_solubility
[3] = Apparent permeability across apical to basolateral side in human Caco2 cells measured over 90 mins by LC-MS/MS analysis; format: ADME, cell-based; settings: Caco-2
[4] = Cysteine reactivity assessed as induction of confirmational change in 13C-methyl-labeled La antigen at 400 uM incubated for 1 hr at 37 degC followed by incubation at 30 degC for 15 mins in presence of DTT by ALARM NMR assay
[5] = Cysteine reactivity assessed as induction of confirmational change in 13C-methyl-labeled La antigen at 400 uM incubated for 1 hr at 37 degC followed by incubation at 30 degC for 15 mins in absence of DTT by ALARM NMR assay
[6] = Volume of distribution at steady state in Sprague-Dawley rat at […], iv; format: ADME, organism-based; settings: in vivo, read-out: Vdss
[7] = AUC (0 to infinity) in Sprague-Dawley rat at […], iv; format: ADME, organism-based; parameters: dose 2.9 mg/kg, time infinity, route intravenous; settings: in vivo
[8] = Drug excretion in Sprague-Dawley rat urine at […], iv; format: ADME, organism-based; settings: in vivo, BLD = below limit of detection
[9] = Cmax in Sprague-Dawley rat at 33 mg/kg, po administered as suspension using HPMC formulation; format: ADME, organism-based; parameters: dose 33 mg/kg, route oral; settings: in vivo
[10] = Tmax in Sprague-Dawley rat at 33 mg/kg, po administered as suspension using HPMC formulation; format: ADME, organism-based; settings: in vivo
[11] = AUC (0 to infinity) in Sprague-Dawley rat at 33 mg/kg, po administered as suspension using HPMC formulation; format: ADME, organism-based; parameters: dose 33 mg/kg, route oral, time infinity; settings: in vivo
[12] = Drug excretion in Sprague-Dawley rat urine at 33 mg/kg, po administered as suspension using HPMC formulation; format: ADME, organism-based; settings: read-out: Drug excretion
[13] = Cmax in Sprague-Dawley rat at 31 mg/kg, po using PEG400/Solutol HS-15/water formulation; format: ADME, organism-based; parameters: dose 31 mg/kg, route oral; settings: in vivo
[14] = Tmax in Sprague-Dawley rat at 31 mg/kg, po using PEG400/Solutol HS-15/water formulation; format: ADME, organism-based; settings: in vivo
[15] = AUC (0 to infinity) in Sprague-Dawley rat at 31 mg/kg, po using PEG400/Solutol HS-15/water formulation; format: ADME, organism-based; parameters: dose 31 mg/kg, time infinity, route oral; settings: in vivo
[16] = Drug excretion in Sprague-Dawley rat urine at 31 mg/kg, po using PEG400/Solutol HS-15/water formulation; format: ADME, organism-based; settings: read-out: Drug excretion
in vivo = settings: Sprague-Dawley, rat, po, 33 mg/kg
[17] = Cmax in Swiss mouse at 30 mg/kg, ip by UPLC analysis; format: ADME, organism-based; parameters: dose 30 mg/kg, route intraperitoneal; settings: in vivo
[18] = Tmax in Swiss mouse at 30 mg/kg, ip by UPLC analysis; format: ADME, organism-based; settings: in vivo

Structure (SMILES) | solubility kinetic [1] [µg/mL] | solubility kinetic [2] [µg/mL] | Papp A→B at […] [3] [×10⁻⁶ cm/s] | also measured
Cc1cc(C(=O)NNS(=O)(=O)c2ccccc2F)cc(-c2ccco2)c1 | 6.3 to 12.5 (≈ 16.8 to 33.4 µM) | 6.3 to 12.5 (≈ 16.8 to 33.4 µM) | – | –
O=C(NNS(=O)(=O)c1ccccc1F)c1cc(Cl)cc(-c2cccs2)c1 | – | – | 27.8 | –
Cc1cc(C(=O)NNS(=O)(=O)c2ccccc2F)cc(-c2ccccn2)c1 | > 100 | 12.5 to 25 (≈ 32.4 to 64.9 µM) | – | –
O=C(NNS(=O)(=O)c1ccccc1F)c1cccc(I)c1 | – | – | 60.4 | –
CC(C)Oc1cccc(C(=O)NNS(=O)(=O)c2ccccc2F)c1 | 50 to 100 (≈ 142 to 284 µM) | 50 to 100 (≈ 142 to 284 µM) | – | –
Cc1cc(OC(C)C)cc(C(=O)NNS(=O)(=O)c2ccccc2F)c1 | 12.5 to 25 (≈ 34.1 to 68.2 µM) | 12.5 to 25 (≈ 34.1 to 68.2 µM) | – | –
Cc1cc(-n2cccn2)cc(C(=O)NNS(=O)(=O)c2ccccc2)c1F | 6.3 to 12.5 (≈ 16.8 to 33.4 µM) | 6.3 to 12.5 (≈ 16.8 to 33.4 µM) | 48 | –
O=C(NNS(=O)(=O)c1ccccc1F)c1cccc(-c2ccco2)c1 | – | – | 55.3 | –
O=C(NNS(=O)(=O)c1ccccc1F)c1cccc(-n2cccn2)c1 | 50 to 100 (≈ 139 to 277 µM) | 50 to 100 (≈ 139 to 277 µM) | – | –
O=C(NNS(=O)(=O)c1ccccc1F)c1cc(F)cc(-c2ccccn2)c1 [WM-1119] | 25 to 50 (≈ 64.2 to 128 µM) | 25 to 50 (≈ 64.2 to 128 µM) | 60 | Drug metabolism [4]: Metabolite_Notdetected; Drug metabolism [5]: Metabolite_Notdetected; Vd [6]: 0.72 L/kg; AUC(0-inf) [7]: 6.2 µM·h; Drug excretion [8]: Bld; Cmax [9]: 2.9 µM; Tmax [10]: 1 h; AUC(0-inf) [11]: 13 µM·h; dose excreted [12]: 0.009%; Cmax [13]: 14 µM; Tmax [14]: 1 h; AUC(0-inf) [15]: 38 µM·h; dose excreted [16]: 0.078%; bioavailability (in vivo): 18%
Cc1cc(-c2ncccn2)cc(C(=O)NNS(=O)(=O)c2ccccc2)c1F | 50 to 100 (≈ 129 to 259 µM) | 50 to 100 (≈ 129 to 259 µM) | 77 | Cmax [17]: 12.1 µM; Tmax [18]: 0.28 h
O=C(NNS(=O)(=O)c1ccccc1F)c1cc(F)cc(-n2cccn2)c1 | 25 to 50 (≈ 66.1 to 132 µM) | 25 to 50 (≈ 66.1 to 132 µM) | – | –
O=C(NNS(=O)(=O)c1ccccc1F)c1cccc(-c2ccccn2)c1 | 50 to 100 (≈ 135 to 269 µM) | 12.5 to 25 (≈ 33.7 to 67.3 µM) | – | –
Cc1cc(C(=O)NNS(=O)(=O)c2ccccc2F)cc(-n2cccn2)c1 | 12.5 to 25 (≈ 33.4 to 66.8 µM) | 12.5 to 25 (≈ 33.4 to 66.8 µM) | – | –
C=CCOc1ccc(F)c(C(=O)NNS(=O)(=O)c2ccccc2)c1 | 50 to 100 (≈ 143 to 285 µM) | 50 to 100 (≈ 143 to 285 µM) | – | –
CCCOc1cccc(C(=O)NNS(=O)(=O)c2ccccc2F)c1 | – | – | 77.3 | –
CCOc1cc(C)cc(C(=O)NNS(=O)(=O)c2ccccc2F)c1 | 12.5 to 25 (≈ 35.5 to 70.9 µM) | 12.5 to 25 (≈ 35.5 to 70.9 µM) | 47 | Drug metabolism [4]: Metabolite_Notdetected; Drug metabolism [5]: Metabolite_Notdetected
Cc1cc(-c2ccccn2)cc(C(=O)NNS(=O)(=O)c2ccccc2)c1F | 50 to 100 (≈ 130 to 259 µM) | 6.3 to 12.5 (≈ 16.3 to 32.4 µM) | 63 | –
CCOc1cc(C)c(F)c(C(=O)NNS(=O)(=O)c2ccccc2)c1 | 12.5 to 25 (≈ 35.5 to 70.9 µM) | 12.5 to 25 (≈ 35.5 to 70.9 µM) | 65 | –
Cc1cc(-n2nccn2)cc(C(=O)NNS(=O)(=O)c2ccccc2)c1F | 25 to 50 (≈ 66.6 to 133 µM) | 25 to 50 (≈ 66.6 to 133 µM) | 53 | –

Source: ChEMBL document CHEMBL4402574, “Discovery of Acylsulfonohydrazide-Derived Inhibitors of the Lysine Acetyltransferase, KAT6A, as Potent Senescence-Inducing Anti-Cancer Agents” (J Med Chem, 2020)
